Earlier results in US10194661B2, “Methods of making dazomet compositions” (priority 2013, dated 2019).

Assays:
[1] = system: bees such as honeybees; details: application to wood, which prevents exposure to bees

## CN=C=S [MITC, methyl isothiocyanate]
Dazomet exposed to wood or moist soils
  share of dazomet decomposition products (major product): approximately 98%

## CN1CSC(=S)N(C)C1 [dazomet, Tetrahydro-3,5-dimethyl-2H-1,3,5-thiadiazine-2-thione]
In wood
  theoretical maximum decomposition rate / stoichiometric conversion rate to MITC: approximately 45%
[1]
  toxicity to bees: relatively non-toxic and harmless
